From patent publication US20120118175A1, “TREATMENT TO REDUCE MICROORGANISMS WITH CARBON DIOXIDE BY MULTIPLE PRESSURE OSCILLATIONS” (SAFEFRESH TECHNOLOGIES, LLC, priority 2004, published 2012)
Where “and” joins values, the source holds several entries; their conditions need not be identical. Identical values can stand only once.

Tests used:
E. coli 0157 = experiment: Inoculated meat cubes treated with carbon dioxide in high pressure reactor, E. coli 0157 plate count; type: cell-based
Protocol: To carry out the experiments, a high pressure reactor was designed to the following specifications. • A vessel built to withstand about 3000 psig with top and bottom vents for the addition/venting of carbon dioxide gas as required. • An analog pressure gauge. • A digital temperature recorder on the top vent from the vessel. • A pH probe that could be raised/lowered into the center of the reactor top. • A supply of liquid carbon dioxide at about 300 psi and −20° C. • A supply of gaseous carbon dioxide heated to about 56° C. in a hot water bath. • A supplementary probe to measure the temperature of the reactor barrel surface. • Lap top computer to record temperature data.
FIG. 8 is a schematic illustration of laboratory equipment 800 used in carrying out various tests of the treatment of meat with carbon dioxide. The apparatus 800 includes pressure cylinders 804, 806, and 808 with high-pressure piping 824, pressure release safety valve 828 and on/off valves 812, 814, 816, 818, 820, and 822. Meat samples, having been inoculated, are suspended from a centrally located shaft within the cylinder 804 and the upper member 802 is bolted to the cylinder 804 in a manner that substantially ensures a leak-proof and pressure tight seal. A stream of fluid carbon dioxide 824 that progressively turns to liquid is transferred into the cylinder 804 until the suspended meat samples therein are immersed in the liquid carbon dioxide. After a recorded and selected period of time, the liquid carbon dioxide is removed from the cylinder 804 and the pressure therein reduced to ambient atmospheric pressure. The samples can then be removed from the cylinder and the reduction of bacteria population determined. The items 806 and 808 are commonly referred to as an intensifier. Opening valve 812 allows filling the cylinder 806 with low pressure fluid carbon dioxide, and then, after isolation of the lower pressure source of the fluid carbon dioxide, a piston in cylinder 808 is activated by hydraulic oil from line 826 (or high-pressure air or gas) and a smaller diameter piston in cylinder 806 compresses the fluid carbon dioxide and elevates the pressure. The higher pressure carbon dioxide fluid in line 824 is then transferred to cylinder 804 via a selected path through high-pressure piping 824 as shown.
Cell cultures were grown overnight in a nutrient broth. The cells were separated by centrifugation and washed in a sterile buffer. The E. coli cell suspension was then diluted to give log 7-9 cell per ml.
Meat was purchased at a local retail store. The meat was aseptically cut into 1 inch cubes and suspended by attachment to sterile fish hooks. Meat samples were then placed into an inoculation chamber where they were sprayed with about 10 mls of the cell inoculum. This was done ensuring that all 6 sides of each piece of meat received the same exposure to the E. coli. The samples were then allowed to stand for about 30 minutes at room temperature to achieve the attachment of the E. coli to the meat. One of these meat samples was immediately taken and analyzed for E. coli (as a control). The remaining inoculated samples were then placed into the reactor and the experiment started.
One (1) inch meat cube samples were suspended from the pH probe using small fishing hooks and line so that the cubes were suspended in the bottom third of the reactor and were neither touching each other nor the walls of the vessel.
(§1) Each meat sample was placed into a sterile bag and weighed, a known volume of sterile buffer was added as a diluent and the meat sample homogenized in a ‘Stomacher’. This suspension was then further diluted as 1:10 dilutions and duplicate 1 ml samples were plated onto the surface of agar media formulated for the enumeration of E. coli 0157. The bacterial levels were recorded as colony forming units CFU per g. or as log 10 of that number.
The methodology was as stated above. The reactor contained inoculated meat. […]

Meat Normal Flora = experiment: Un-inoculated meat exposed to CO2 in a supercritical fluid extractor, bacterial plate count; type: cell-based; settings: for CFU/g / Logs: control 7.53 logs, listed as CO2
Protocol: as §1
The above experiments used the most exacting conditions available given the reactor equipment. The survival of natural microflora of meat when treated with carbon dioxide in the super critical range was also investigated.
In the Dairy Science chemistry research lab in Call Hall (KSU), equipment is available to achieve temperatures and pressures above the critical point of carbon dioxide (a Pepmaster GA made by the Suprex Corp.). This device is mainly used for lipid extraction from natural materials prior to further analysis.
The tests were undertaken to determine the efficacy of supercritical carbon dioxide using laboratory equipment shown schematically in FIGS. 8 and 9.
The sample cells 2 in parallel hold about 4 gr of sample which is sufficient to do microbial analysis and the equipment could control pressure up to about 7500 psig, temperature (above ambient), and time. Introduction of E. coli 0157 meat into the lab was not possible. […]

[1] = Experiment 1: 300-1000 psi, 10 min
[2] = Experiment 3: 1000 psi @ 13° C. held 4 hours, analyzed immediately, control 7.87 logs, listed as Liquid CO2
[3] = Experiment 4: 1470 psi @ 29° C., 5 min
[4] = Experiment 4: 3000 psi @ 29° C., 5 min

O=C=O [carbon dioxide]
average of the 3 test samples (E. coli 0157; [1]): 7.22 log | log reduction versus control (E. coli 0157; [1]): 0.47 log | average of the test samples (E. coli 0157; Experiment 2: -17° C. at 300 psig, then 1000 psig 5 min): 6.5 log | log reduction versus control (E. coli 0157; Experiment 2: -17° C. at 300 psig, then 1000 psig 5 min, meat frozen, listed as Liquid CO2): ~1 log and 1.27 log | CFU/g (E. coli 0157; [2]): 8,741,258.7 CFU/g and 14,344,362.3 CFU/g and 8,467,741.9 CFU/g | Logs (E. coli 0157; [2]): 6.94 Logs and 7.16 Logs and 6.93 Logs | log reduction versus control (E. coli 0157; Experiment 3: 1000 psig 4 hours, analyzed immediately): ~1 log and 0.86 log | further log kill by storage (E. coli 0157; Experiment 3: storage in about 100% carbon dioxide at about 4° C. for 4 days after treatment): 2.83 log | destruction of E. coli 0157 on meat surfaces (E. coli 0157; liquid carbon dioxide in the sub critical range alone): no practical significance | log kill with liquid carbon dioxide (E. coli 0157; liquid carbon dioxide, experiment not specified): ~0.5 log | log bacteria reduction versus control (Meat Normal Flora; Experiment 4: 1470 psi @ 29° C. (line 21B)): ~1 log | CFU/g (Meat Normal Flora; [3]): 5,233,644.9 CFU/g and 9,523,809.5 CFU/g | Logs (Meat Normal Flora; [3]): 6.72 Logs and 6.98 Logs | log bacteria reduction versus control (Meat Normal Flora; Experiment 4: 3000 psi @ 29° C. (lines 22C and 23D)): ~1 log | CFU/g (Meat Normal Flora; [4]): 9,029,345.4 CFU/g and 5,154,639.2 CFU/g | Logs (Meat Normal Flora; [4]): 6.96 Logs and 6.71 Logs | log bacteria after the test (Meat Normal Flora; Experiment 5: 3000 psi, 36° C., 5 min (mean of replicates)): 5.53 log | log reduction versus control (Meat Normal Flora; Experiment 5: supercritical, 3000 psi, 36° C., 5 min): ~2 log and 1.83 log
